# According to PMC6624297 (Cell Death & Disease, 2019):
# Columns and labels:
# human TS (hTS) = biological target: T1, human TS (hTS) (Homo sapiens, UniProt P04818); experiment: Thymidylate synthase (TS) spectrophotometric assay; format: biochemical; settings: averages from triplicate assays
# T1 construct: purchased ProSpec-Tany
# Procedure: Recombinant human thymidylate synthase purchased from ProSpec-Tany Company. TS was assayed spectrophotometrically at 30 °C and pH 7.4 in a mixture containing 0.1 M 2-mercaptoethanol, 0.0003 M (6R,S)-tetrahydrofolate, 0.012 M formaldehyde, 0.02 M MgCl2, 0.001 M dUMP, 0.04 M Tris–HCl, 30 nM hTS, and 0.00075 M NaEDTA. […] The reaction was initiated by the addition of an amount of enzyme yielding a change in absorbance at 340 nm of 0.016/min in the absence of inhibitor.
# OVCAR-3 cells = experiment: MTT assay OVCAR-3; format: cell-based; settings: Homo sapiens, 24h of treatment, mean ± SD
# Procedure: (§1) Details are given in Supplementary Materials and Methods. Using probability unit and weighted regression method to calculate the IC50 value of compounds.
# (§2) Total cells in the logarithmic growth phase were collected, digested using 0.25% pancreatic enzymes, and then diluted into single-cell suspensions using phosphate-buffered solution (PBS). These cells were seeded into 96-well plates at 4× 10^3-5× 10^3 cells per well (100 µL per well) and then A549, H460, OVCAR-3, SGC7901, MDA-MB-231, HCT116 and HepG2 were cultured at 37°Cin an incubator containing 5% CO2. After cell complete attachment, 100 µL of different concentrations of compounds (0.625 μM, 1.25 μM, 2.5μM, 5 μM, 10 μM) were added to the cells after the nutrient solution in each well was discarded, while no compound except 0.1% DMSO was added to cells in the control group; at the same time, each concentration was set up to 5 wells. In addition, 5 wells in each 96-well plate only received 100 µL of nutrient solution as a blank control. The plates were taken out after the cells were incubated with compounds for 24 h, and 20 µL of MTT solution (5 mg/mL) (Wuhan Boster Biotechnology Limited Company, Wuhan, China; item No. AR1156) was added into all the wells. After another time of incubation for 4 h at 37 °C, the nutrient solution in each well was discarded slowly, and 150 µL of DMSO was added to each well. The plates were shaken on a shaking table for 20 min. When the crystals were fully dissolved, the blank wells were used to zero the plate reader. The optical density (OD) of each well was detected at 490 nm. The IC50 value was determined as the concentration of the inhibitor that caused 50% inhibition. Using probability unit and weighted regression method to calculate the IC50 value of compounds.
# SGC7901 cells = experiment: MTT assay SGC7901; format: cell-based; settings: Homo sapiens, SGC-7901, 24h of treatment, mean ± SD
# Procedure: as §1, §2
# IOSE80 cell line = experiment: Selectivity index against IOSE80; format: cell-based; settings: SI = CC50/IC50
# HCoEpiC cell line = experiment: Selectivity index against HCoEpiC; format: cell-based; settings: SI = CC50/IC50
# HTB-125 cell line = experiment: Selectivity index against HTB-125; format: cell-based; settings: SI = CC50/IC50
# A549 cells [1] = experiment: Cell cycle PI staining FACS, A549; format: cell-based, human; settings: A549, 0.5, 1.0, 1.5 μM, 24 h
# Description: TS is a crucial enzyme in the DNA synthesis stage. When it is inhibited, first to show cell cycle arrest at G1/S phase. […] Flow cytometry show (Fig. 3), as the concentration of the compound increases, the cells in the G0/G1 phase increase, the cells in the S phase and the G2/M phase decrease. Eventually, the proliferation of cancer cells was inhibited by the G1/S phase arrest of the compound L14e.
# A549 cells [2] = experiment: Transwell migration and wound healing, A549; format: cell-based, human; settings: A549, 0.5, 1.0, 1.5 μM, 24 h
# Procedure: Cell migration ability was measured using transwell chambers (8-μm pore size; Corning Costar, Cambridge, MA, USA). For the transwell assay, A549 and H460 cells suspended in serum-free RPMI-1640 medium containing different concentrations of L14e (0, 0.5, 1.0, and 1.5 μM) were seeded into the upper chamber. The lower chamber contained RPMI-1640 medium supplemented with 20% serum. After 24 h incubation, the filters were fixed in methanol and stained with 0.1% crystal violet. The upper faces of the filters were gently abraded, and the lower faces with cells migrated across the filters were imaged and counted under the microscope. For wound healing assays, cells were placed into 6-well plates and cultured until 100% confluence. An artificial scratch was created using a 200 μL pipette tip. Add serum-free RPMI-1640 medium containing different concentrations of drugs. At 24 h after culturing in serum-free medium, wound closure images were captured in the same field under magnification. Cell healing rates were calculated by the fraction of cell coverage across the line. These experiments were performed in triplicate and repeated three times.
# VEGF = VEGF secretion ELISA in A549 supernatant; format: cell-based, human; settings: ELISA of cell supernatant
# Procedure: Since the inhibitory effect of the compound on A549 cells was stronger than that of H460, the A549 cells were treated with different concentrations of L14e. Taking the supernatant of the cells to detect the change of VEGF content by ELISA assays, and the effect of the supernatant on the formation of endothelial cells was detected.
# A549 tumor xenograft = A549 tumor xenograft model; format: in vivo, BABL/c female nude mice; settings: 80 mg/kg, 3 weeks
# Procedure: Five-week-old immunodeficient BABL/c female nude mice, weighing 18 to 20 g, were purchased and maintained under specific pathogen-free conditions. They were implanted subcutaneously with 1 × 10^7 A549 cells. Tumor sizes were assessed using the two largest perpendicular axes. Tumor volume was calculated using the formula V = (a × b^2)/2, where a is length and b is width. The tumor volume was measured every 3 days. When tumor volumes reached 50 mm^3, the mice were randomized to drug-treated or vehicle groups (five mice per group). Tumor growth was monitored every 3 days using a Vernier caliper. […] All animal studies were conducted with the approval of the Laboratory Animal Welfare and Ethical Committee of China Medical University.
# After incubation with hydrogen peroxide, the slides were washed with PBS and then incubated with 0.4% Triton X-100. The sections were incubated with blocking solution (Dako Protein Block, Dako, Glostrup, Denmark) for 30 min at room temperature after washing with PBS. The sections were further incubated with primary antibodies (Ki67 and cleaved caspase 3 [all from Cell Signaling Technology], diluted at 1:200) overnight at 4 °C, washed with PBS several times, incubated with the corresponding biotinylated secondary antibodies (diluted at 1:500), and then washed with PBS multiple times. After adding avidin-biotin complexes (Vector Laboratories), the sections were visualized using diaminobenzidine (DAB) detection reagent (Enzo Life Sciences, Farmingdale, NY, USA) and mounted with a mounting solution (Vector Laboratories, Burlingame, CA, USA).
# T1 sequence (P04818 whole entry): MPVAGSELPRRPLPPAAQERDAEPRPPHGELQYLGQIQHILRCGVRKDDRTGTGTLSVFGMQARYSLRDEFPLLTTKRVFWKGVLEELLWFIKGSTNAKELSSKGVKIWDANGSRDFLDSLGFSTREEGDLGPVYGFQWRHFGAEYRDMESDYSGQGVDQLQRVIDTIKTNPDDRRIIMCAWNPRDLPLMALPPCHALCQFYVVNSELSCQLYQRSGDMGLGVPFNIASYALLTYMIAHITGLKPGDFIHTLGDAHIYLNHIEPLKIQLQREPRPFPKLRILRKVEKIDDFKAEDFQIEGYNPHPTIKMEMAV
smiles,measurement,setting,value
"O=C(Nc1cccc(Cl)c1)Nc1ccccc1NS(=O)(=O)c1c[nH]c(=O)[nH]c1=O [Compound L14e, N'-(3-chlorophenyl)-2-(2,4-dihydroxypyrimidine-5-sulfonamido)phenyl urea]",IC50,human TS (hTS),1060 nM
same,IC50,OVCAR-3 cells,1680 ± 310 nM
same,IC50,SGC7901 cells,1950 ± 150 nM
same,SI (Selectivity index) IOSE80,IOSE80 cell line,8.79
same,SI (Selectivity index) HCoEpiC,HCoEpiC cell line,9.40
same,SI (Selectivity index) HTB-125,HTB-125 cell line,10.39
same,effect on cell cycle,A549 cells [1],arrest the cell cycle in the G1/S phase
same,effect on cell migration,A549 cells [2],significantly inhibited the migration
same,secretion of VEGF in A549 cells,VEGF,significantly reduce the secretion of VEGF
same,changes in body weight in xenograft mice,A549 tumor xenograft,negligible changes in body weight
same,expression of Ki67 in tumors (IHC),A549 tumor xenograft,significantly decreased
same,expression of cleaved-caspase-3 in tumors (IHC),A549 tumor xenograft,significantly increased
same,growth of xenograft tumors,A549 tumor xenograft; intraperitoneal injection,significantly suppressed the growth of xenograft tumors
same,tumor growth inhibition (TGI),A549 tumor xenograft; intraperitoneal injection,84.86
